Results on three molecules are retold here after patent US20010007020A1, “ANTIBODIES THAT BIND TO THE NIDOGEN-BINDING DOMAIN OF LAMININ, THEIR PRODUCTION AND USE” (HOECHST AKTIENGESELLSCHAFT, priority 1997, published 2001).

Assay [1] has as its target laminin/nidogen binding (radioactively labeled nidogen to laminin P1-coated tubes). Briefly: coated-tube inhibition assay, simultaneous inhibition. More on the design: species or system human. To be noted: simultaneous assay type. The procedure:
(§1) The inhibitory activity of the affinity-purified antibodies can be identified by means of a coated-tube assay which measures the binding of radioactively labeled nidogen to (human placental) laminin P1-coated tubes in the presence of the antibodies.
(§2) Recombinantly produced human nidogen (35 μg, for description of the clone and culturing and purification conditions, see Mayer, U. et al. (1995) Eur. J. Biochem. 227:681-686) was dissolved in 250 μl of PBS, and 0.405 mCi (=15 Mbq) of Na iodide (^125I) solution (=1.55 μl, Nordion Europe), 10 μl of 0.5 M Na phosphate, pH 7.4, and 40 μg of chloramine T (N-chloro-4-toluenesulfonamide sodium salt, Merck) in 100 μl of 0.05 M Na phosphate, pH 7.4, were added to the solution. The reaction took place for 60 seconds at room temperature and was stopped by adding a solution of 40 μg of Na metabisulfite (Riedel-de-Haen) in 100 μl of 0.05 M Na phosphate, pH 7.4. This addition was made in at most 30 seconds and 900 μl of 1% BSA (Sigma) in PBS were then added to the mixture. Free radioactivity and excess salts were separated off by means of molecular sieve chromatography using a PD 10 column (Pharmacia). The iodinated nidogen, which was eluted in PBS, was pooled and diluted with 1% BSA/0.05 M Na phosphate/0.01% Na azide, pH 7.4, such that a concentration of 50 ng/ml was obtained. […]
Target sequence in this assay (P11047 773-934 limits assumed, one chain of several): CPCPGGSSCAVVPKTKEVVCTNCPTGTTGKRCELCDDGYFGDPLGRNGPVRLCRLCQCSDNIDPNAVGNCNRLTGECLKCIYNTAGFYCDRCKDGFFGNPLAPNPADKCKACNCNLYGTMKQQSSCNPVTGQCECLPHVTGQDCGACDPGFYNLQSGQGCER

For assay [2] the target is unchanged. Put plainly: coated-tube inhibition assay, sequential inhibition. More on the design: species or system human. The procedure: as §1, §2
Inhibition assay using “laminin-mimetic” structures (sequential inhibition) 200 μl of iodinated nidogen (approx. 10 ng, approx. 40,000 counts per min) and 200 μl of the inhibitor (e.g. peptides which can be derived from the laminin γ1 III 4 domain) or standards (laminin γ1 III 3-5) were shaken in a reaction vessel at room temperature. […] Finally, the solution was tipped out and the tubes were washed twice with 1 ml of PBS/0.04% Tween 20, after which the bound radioactivity (nidogen) was measured in a gamma counter. The quantity of bound nidogen in the solutions containing inhibitor was related to that of the nidogen when no inhibitor was added. […]

Assay [3] has as its system laminin P1. Briefly: BIAcore binding kinetics on immobilized laminin P1. To be noted: 20 μg/ml; matrix with 4000 RU laminin P1. From the text:
Biospecific interactions can be monitored on-line using the BIAcore® system from Pharmacia Biosensor. The principle of the measurement is based on an optical phenomenon (surface plasmon resonance) which is affected by the mass which is bound on a gold film. Expressed in simple terms, the system is miniaturized affinity chromatography on a gold sensor surface. The quantity of specifically bound ligand can be depicted visually in the form of a resonance signal (Chaiken, I. et al. (1992) Anal. Biochem. 201:197-201; Karisson, R. et al. (1992) in: Structure of Antigens; (Ed.: van Regenmortel). pp. 127-148; CRC Press, Boca Raton, Fla.)
Laminin P1 was immobilized, at a concentration of 200 μg/ml in 10 mM Na acetate, pH 4.0, on the sensor chip in accordance with the instructions in the user manual. A matrix containing 4000 RU of bound laminin P1 is obtained. A double impulse of in each case 4 μl of 100 mM HCl can be carried out in order to regenerate the affinity matrix.
The fact that it was still not possible to observe any transition to the equilibrium state after 1400 seconds can be an expression of the fact that the specific peptide sequence of laminin P1 which is responsible for binding nidogen was readily available to the antibodies. The antibodies bound to this sequence irrespective of whether it was in the biologically active conformation or in a different conformation. […]
For orientation: In SPR one partner is held on a chip, and binding of the other changes the refractive index at the surface.

Setting [4] is: sequential assay type, read-out: IC50% inhibition of laminin/nidogen binding.

Sequence of laminin P1 (P11047 773-934 limits assumed): as the sequence (P11047 773-934 limits assumed, one chain of several) above

“DNIDPNAVGNL [(1), peptide used for immunization]”: the IC50 is 60 µM in assay [1]; 60 µM in assay [2] (in the assay described here, shortened incubation times, variant not stated, read-out: IC50%); 60 µM in assay [2] (setting [4]).
Consider “DNIDPNAVGNLKCIYNTAGFYCDR [(2), peptide used for immunization]”, for which the IC50 in assay [1] and in assay [2] (setting [4]) was 20 µM each time.

B1: nidogen: recombinantly produced human nidogen, 160 kDa glycoprotein (protein, UniProt P14543 29-1247, looked up)
Nidogen-1: LSRQELFPFGPGQGDLELEDGDDFVSPALELSGALRFYDRSDIDAVYVTTNGIIATSEPPAKESHPGLFPPTFGAVAPFLADLDTTDGLGKVYYREDLSPSITQRAAECVHRGFPEISFQPSSAVVVTWESVAPYQGPSRDPDQKGKRNTFQAVLASSDSSSYAIFLYPEDGLQFHTTFSKKENNQVPAVVAFSQGSVGFLWKSNGAYNIFANDRESVENLAKSSNSGQQGVWVFEIGSPATTNGVVPADVILGTEDGAEYDDEDEDYDLATTRLGLEDVGTTPFSYKALRRGGADTYSVPSVLSPRRAATERPLGPPTERTRSFQLAVETFHQQHPQVIDVDEVEETGVVFSYNTDSRQTCANNRHQCSVHAECRDYATGFCCSCVAGYTGNGRQCVAEGSPQRVNGKVKGRIFVGSSQVPIVFENTDLHSYVVMNHGRSYTAISTIPETVGYSLLPLAPVGGIIGWMFAVEQDGFKNGFSITGGEFTRQAEVTFVGHPGNLVIKQRFSGIDEHGHLTIDTELEGRVPQIPFGSSVHIEPYTELYHYSTSVITSSSTREYTVTEPERDGASPSRIYTYQWRQTITFQECVHDDSRPALPSTQQLSVDSVFVLYNQEEKILRYALSNSIGPVREGSPDALQNPCYIGTHGCDTNAACRPGPRTQFTCECSIGFRGDGRTCYDIDECSEQPSVCGSHTICNNHPGTFRCECVEGYQFSDEGTCVAVVDQRPINYCETGLHNCDIPQRAQCIYTGGSSYTCSCLPGFSGDGQACQDVDECQPSRCHPDAFCYNTPGSFTCQCKPGYQGDGFRCVPGEVEKTRCQHEREHILGAAGATDPQRPIPPGLFVPECDAHGHYAPTQCHGSTGYCWCVDRDGREVEGTRTRPGMTPPCLSTVAPPIHQGPAVPTAVIPLPPGTHLLFAQTGKIERLPLEGNTMRKTEAKAFLHVPAKVIIGLAFDCVDKMVYWTDITEPSIGRASLHGGEPTTIIRQDLGSPEGIAVDHLGRNIFWTDSNLDRIEVAKLDGTQRRVLFETDLVNPRGIVTDSVRGNLYWTDWNRDNPKIETSYMDGTNRRILVQDDLGLPNGLTFDAFSSQLCWVDAGTNRAECLNPSQPSRRKALEGLQYPFAVTSYGKNLYFTDWKMNSVVALDLAISKETDAFQPHKQTRLYGITTALSQCPQGHNYCSVNNGGCTHLCLATPGSRTCRCPDNTLGVDCIEQK
With B1, the “bound amount at transition to the saturation phase” value in assay [3] is on record as 600 RU.
